Patent publication US7351728B2, “Oxazolyl-aryloxyacetic acid derivatives and their use as PPAR agonists” (Eli Lilly and Company, priority 2003, dated 2008)

Test system: HuapoAI transgenic mice
Assay: Evaluation of triglyceride and cholesterol level in HuapoAI transgenic mice
Format: in vivo
Settings: Mus musculus, 168 h, 30 mg/kg daily oral gavage 7 days; for change in vivo at 30 mg/kg: percent increase in FPLC HDLc area under the curve; for inhibition in vivo at 30 mg/kg: serum, male human apoAI transgenic mice, read-out: % Triglyceride Reduction
Protocol: Five to six week old male mice, transgenic for human apoAI [C57Bl/6-tgn(apoa1)lrub, Jackson Laboratory, Bar Harbor, Me.] were housed five per cage (10″×20″×8″ with aspen chip bedding) with food (Purina 5001) and water available at all times. After an acclimation period of 2 weeks, animals were individually identified by ear notches, weighed, and assigned to groups based on body weight. Beginning the following morning, mice were dosed daily by oral gavage for 7 days using a 20 gauge, 1½″ curved disposable feeding needle (Popper & Sons). Treatments were test compounds (30 mg/kg), a positive control (fenofibrate, 100 mg/kg) or vehicle [1% carboxymethylcellulose (w/v)/0.25% Tween80 (w/v); 0.2 ml/mouse]. Prior to termination on day 7, mice were weighed and dosed. Three hours after dosing, animals were anesthetized by inhalation of isoflurane (2-4%; Abbott Laboratories, Chicago, Ill.) and blood obtained via cardiac puncture (0.7-1.0 ml). Whole blood was transferred to serum separator tubes (Vacutainer SST), chilled on ice, and permitted to clot. Serum was obtained after centrifugation at 4° C. and frozen until analysis for triglycerides, total cholesterol, compound levels, and serum lipoprotein profile by fast protein liquid chromatography (FPLC) coupled to an inline detection system. After sacrifice by cervical dislocation, the liver, heart and epididymal fat pads were excised and weighed.
The animals dosed with vehicle had average triglycerides values of 60-80 mg/dl, which were reduced by the positive control fenofibrate (33-58 mg/dl with a mean reduction of 37%). The animals dosed with vehicle had average total serum cholesterol values of 140-180 mg/dl, which were increased by fenofibrate (190-280 mg/dl, with a mean elevation of 41%). […] Fenofibrate increased the amount of HDLc (68-96 v-sec with a mean percent increase of 48%).
Glucose was measured colorimetrically using commercially purchased reagents (Sigma #315-500). According to the manufacturers, the procedures were modified from published work (McGowan, M. W., Artiss, J. D., Strandbergh, D. R. & Zak, B. Clin Chem, 20:470-5 (1974) and Keston, A. Specific colorimetric enzymatic analytical reagents for glucose. Abstract of papers 129th Meeting ACS, 31C (1956).); and depend on the release of a mole of hydrogen peroxide for each mole of analyte, coupled with a color reaction first described by Trinder (Trinder, P. Determination of glucose in blood using glucose oxidase with an alternative oxygen acceptor. Ann Clin Biochem, 6:24 (1969)). The absorbance of the dye produced is linearly related to the analyte in the sample. The assays were further modified in our laboratory for use in a 96 well format. Standards (Sigma #339-11, Sigma #16-11, and Sigma #CC0534 for glucose triglycerides and total cholesterol, respectively), quality control plasma (Sigma # A2034), and samples (2 or 5 μl/well) were measured in duplicate using 200 μl of reagent. An additional aliquot of sample, pipetted to a third well and diluted in 200 μl water, provided a blank for each specimen. Plates were incubated at room temperature (18, 15, and 10 minutes for glucose, triglycerides and total cholesterol, respectively) on a plate shaker (DPC Micormix 5) and absorbance read at 500 nm (glucose and total cholesterol) or 540 nm (triglycerides) on a plate reader (Wallac Victor 1420). Sample absorbances were compared to a standard curve (100-800, 10-500, and 100-400 mg/dl for glucose, triglycerides and total cholesterol, respectively). Values for the quality control sample were always within the expected range and the coefficient of variation for samples was below 10%. All samples from an experiment were assayed at the same time to minimize inter-assay variability.
Serum lipoproteins were separated and cholesterol quantitated with an in-line detection system. Sample was applied to a Superose® 6 HR 10/30 size exclusion column (Amersham Pharmacia Biotech) and eluted with phosphate buffered saline-EDTA at 0.5 ml/min. […]

Cc1oc(-c2ccccc2)nc1CCOc1ccc(OC(C)(C)C(=O)O)cc1 [Example 1, 2-Methyl-2-{4-[2-(5-methyl-2-phenyloxazol-4-yl)ethoxy]phenoxy}propionic acid]
change in vivo at 30 mg/kg: 77%
inhibition in vivo at 30 mg/kg: 79.2%

Cc1oc(-c2cccc(Br)c2)nc1CCOc1ccc(OC(C)(C)C(=O)O)cc1 [Example 9A, 2-(4-{2-[2-(3-Bromophenyl)-5-methyloxazol-4-yl]ethoxy}phenoxy)-2-methylpropionic acid]
change in vivo at 30 mg/kg: 118%
inhibition in vivo at 30 mg/kg: 67.1%

CCc1cccc(-c2nc(CCOc3ccc(OC(C)(C)C(=O)O)cc3)c(C)o2)c1 [Example 12, 2-(4-{2-[2-(3-Ethylphenyl)-5-methyloxazol-4-yl]ethoxy}phenoxy)-2-methylpropionic acid]
change in vivo at 30 mg/kg: 180%
inhibition in vivo at 30 mg/kg: 74.3%

Cc1oc(-c2cccc(CCc3ccccc3)c2)nc1CCOc1ccc(OC(C)(C)C(=O)O)cc1 [Example 12A, 2-Methyl-2-(4-{2-[5-methyl-2-(3-phenethylphenyl)oxazol-4-yl]ethoxy}phenoxy)-propionic acid]
change in vivo at 30 mg/kg: 47%

CCc1ccc(-c2nc(CCOc3ccc(OC(C)(C)C(=O)O)cc3)c(C)o2)cc1 [Example 13, 2-(4-{2-[2-(4-Ethylphenyl)-5-methyloxazol-4-yl]ethoxy}phenoxy)-2-methylpropionic acid]
change in vivo at 30 mg/kg: 133%
inhibition in vivo at 30 mg/kg: 44.8%

Cc1oc(-c2ccc(OC3CCCCC3)cc2)nc1CCOc1ccc(OC(C)(C)C(=O)O)cc1 [Example 21, 2-(4-{2-[2-(4-Cyclohexyloxy-phenyl)-5-methyl-oxazol-4-yl]-ethoxy}-phenoxy)-2-methyl-propionic acid]
change in vivo at 30 mg/kg: 9%

Cc1cc(OCCc2nc(-c3ccccc3)oc2C)ccc1OC(C)(C)C(=O)O [Example 24, 2-Methyl-2-{2-methyl-4-[2-(5-methyl-2-phenyloxazol-4-yl)ethoxy]phenoxy}propionic acid]
change in vivo at 30 mg/kg: 61%
inhibition in vivo at 30 mg/kg: 75%

CCCc1cc(OCCc2nc(-c3ccccc3)oc2C)ccc1OCC(=O)O [Example 26, {4-[2-(5-methyl-2-phenyl-oxazol-4-yl)ethoxy]-2-propylphenoxy}acetic acid]
change in vivo at 30 mg/kg: 19%
inhibition in vivo at 30 mg/kg: 25.5%

CCCc1cc(OCCc2nc(-c3ccccc3)oc2C)ccc1OC(C)(C)C(=O)O [Example 26A, 2-Methyl-2-{4-[2-(5-methyl-2-phenyloxazol-4-yl)ethoxy]-2-propylphenoxy}propionic acid]
change in vivo at 30 mg/kg: 43%
inhibition in vivo at 30 mg/kg: 35.9%

CCCc1cc(OC(C)(C)C(=O)O)ccc1OCCc1nc(-c2ccccc2)oc1C [Example 27A, 2-Methyl-2-{4-[2-(5-methyl-2-phenyloxazol-4-yl)ethoxy]-3-propylphenoxy}propionic acid]
change in vivo at 30 mg/kg: 52%
inhibition in vivo at 30 mg/kg: 29.5%

CCc1cc(OCCc2nc(-c3ccccc3)oc2C)ccc1OC(C)(C)C(=O)O [Example 30A, 2-{2-Ethyl-4-[2-(5-methyl-2-phenyloxazol-4-yl)ethoxy]phenoxy}2-methylpropionic acid]
change in vivo at 30 mg/kg: 93%
inhibition in vivo at 30 mg/kg: 51.8%

Cc1oc(-c2ccccc2)nc1CCOc1ccc(OC(C)(C)C(=O)O)c(CC(C)C)c1 [Example 30C, 2-{2-Isobutyl-4-[2-(5-methyl-2-phenyloxazol-4-yl)ethoxy]phenoxy}-2-methylpropionic acid]
change in vivo at 30 mg/kg: 31%
inhibition in vivo at 30 mg/kg: 6.2%

Cc1oc(-c2ccccc2)nc1CCOc1ccc(OC(C)(C)C(=O)O)c(CCc2ccccc2)c1 [Example 30J, 2-Methyl-2-{4-[2-(5-methyl-2-phenyloxazol-4-yl)ethoxy]-2-phenethylphenoxy}propionic acid]
change in vivo at 30 mg/kg: 77%

CCCCc1cc(OC(C)(C)C(=O)O)ccc1OCCc1nc(-c2ccccc2)oc1C [Example 31F, 2-{3-Butyl-4-[2-(5-methyl-2-phenyloxazol-4-yl)ethoxy]phenoxy}-2-methylpropionic acid]
change in vivo at 30 mg/kg: 79%
inhibition in vivo at 30 mg/kg: 35.7%

Cc1oc(-c2ccccc2)nc1CCOc1ccc(OC(C)(C)C(=O)O)c(Cc2ccccc2)c1 [Example 32, 2-{2-Benzyl-4-[2-(5-methyl-2-phenyloxazol-4-yl)ethoxy]phenoxy}-2-methylpropionic acid]
change in vivo at 30 mg/kg: 20%

Cc1oc(-c2ccccc2)nc1CCOc1ccc(OC(C)(C)C(=O)O)c2ccccc12 [Example 37, 2-Methyl-2-{4-[2-(5-methyl-2-phenyl-oxazol-4-yl)-ethoxy]-naphthalen-1-yloxy}-propionic acid]
change in vivo at 30 mg/kg: 94%
inhibition in vivo at 30 mg/kg: 29.9%

Cc1oc(-c2ccccc2)nc1CCOc1ccc(OC(C)(C)C(=O)O)c2c1CCCC2 [Example 38, 2-Methyl-2-{4-[2-(5-methyl-2-phenyl-oxazol-4-yl)-ethoxy]-5,6,7,8-tetrahydro-naphthalen-1-yloxy}-propionic acid]
change in vivo at 30 mg/kg: 86%
inhibition in vivo at 30 mg/kg: 39%
